pKd: −log10 of the molar value. “Also recorded” adds a separate entry of the source. Like-named read-outs stand apart in the source and are kept apart here. Bridge positions count the residues as written; N and C are the ends. Square brackets hold non-standard residues; d marks the D form. Peptide text beside a SMILES is read from it. * marks the point of attachment. X1 = CC[C@H](C)CCCCC(=O)*; Dab = NCC[C@H](N)C(=O)O
Tests used:
wt-OMVs [1] = experiment: TEM / cryo-EM of treated OMVs; parameters: species or system E. coli; conditions: ~0.5:1 compound to LPS
Experimental: OMVs were incubated in OMV buffer (as above) plus 0.0005% tween-80 and then polymyxin B, PMBN, or an equal volume of OMV buffer, added for a final ratio of 0.5:1 polymyxin B (or PMBN) to LPS for either 1 min or 40 min. The amount of LPS in the OMV preparations was determined using fluorescently labeled LPS as described. LPS was quantified by addition of 20 µL of 4 µM dansyl-polymyxin B to 20 µL of sample or dilution series of LPS in PBS with 0.004% tween-80 and 5 mM EDTA in a while polypropylene 384-well plate (Thermo-Fisher). The plate was incubated for 30 min at room-temperature before reading the fluorescence intensity on a plate reader (Ex 340 nm, Em 495 nm, cutoff 475 nm). Concentration was interpolated using a standard curve. Log-phase bacteria were diluted to OD600 of 0.25 in 3 mL of LB supplemented with tween-80 before addition of 1 µL of 1 µM polymyxin B or PMBN and incubated statically at 37 °C. Samples were fixed at times indicated by addition of equal volume of 2x Karnovsky fix and stored at 4 °C. The suspensions were then adsorbed to the surface of formvar and carbon-coated standard TEM grids (75 mesh) for 15 min at room temperature, quickly rinsed in ultrapure water. OMVs were stained twice for 60 s with 2% aqueous uranyl acetate and bacteria were stained with uranyl-less stain (ready-to-use solution from Electron Microscopy Sciences) twice for 60 s. Excess staining solution was blotted off and grids were air dried. Imaging was with JEOL JEM-1400 transmission electron microscope (TEM) operated at 80 kV using magnification form 5000x to 100,000x. At least 20 images were taken for each sample. […]
California USA, www.graphpad.com). […]
Wild-type and polymyxin-resistant OMVs (pmrAG53E) were incubated with polymyxin B, PMBN, or an equal volume of buffer, as described for TEM imaging at a final ratio of 0.5:1 polymyxin B (or PMBN) to LPS for 20 min. To prepare samples for cryo-EM, 4 μL of each condition was applied to holey gold grids (UltrAuFoil 25 nm R 1.2/1.3; Quantifoil) which had been glow discharged for 20 sec with a Solarus plasma cleaner (Gatan). […]

wt-OMVs [2] = experiment: SPR steady-state affinity of reversible (saw-tooth) binding, wt-OMVs; parameters: species or system E. coli; conditions: n=4, (SD), read-out: Apparent KD
Experimental: An apparent-KD was measured for the reversible saw-tooth binding profile where polymyxin B was titrated over an OMV surface pre-saturated with the stable binding component (Supplementary Information Fig. S11B). […] No pre-saturation was necessary when using resistant-OMVs or PMBN as these lack the stable component (Fig. 2B, D–F).
Binding and kinetic analysis of SPR-OMV assays
To determine the apparent- KD of the reversible binding event of polymyxin B, single-cycle kinetics were performed as described in Materials and Methods. After OMVs were loaded, 5 µM polymyxin B was injected for 360 sec ([…] flow rate) followed by 120 sec dissociations to saturate the stable-binding population prior to the sample injections. The base-to-peak value of each trace was determined from double-referenced traces (reference 1: - OMVs/ + compound channel; reference 2: + OMVs/ - compound) exported from the Biacore S200 evaluation software into PRISM 9 software. The change in RU with each pulse was plotted over the concentration and the KD determined by fitting a non-linear regression, one-site total function with background parameter set to 0 (GraphPad Prism version 9.3.1 for Mac, GraphPad Software, San Diego, California USA, www.graphpad.com). […]

## CC[C@H](C)CCCCC(=O)N[C@@H](CCN)C(=O)N[C@H](C(=O)N[C@@H](CCN)C(=O)N[C@H]1CCNC(=O)[C@H]([C@@H](C)O)NC(=O)[C@H](CCN)NC(=O)[C@H](CCN)NC(=O)[C@H](CC(C)C)NC(=O)[C@@H](Cc2ccccc2)NC(=O)[C@H](CCN)NC1=O)[C@@H](C)O [Polymyxin B] (X1-[Dab]T[Dab][Dab][Dab][dF]L[Dab][Dab]T; lactam 4-C (inferred); N-terminus assumed)
wt-OMVs [1]
  effect on OMV morphology (words): led to clumping
wt-OMVs [1]; listed as polymyxin B
  effect on OMV morphology (words): exhibited vesiculation and tubules; also recorded: OMVs are perturbed by polymyxin B
wt-OMVs [2]; isolated reversible binding, OMVs pre-saturated with 5 µM polymyxin B
  pKd: 6.29

## CC(C)C[C@@H]1NC(=O)[C@@H](Cc2ccccc2)NC(=O)[C@H](CCN)NC(=O)[C@@H](NC(=O)[C@H](CCN)NC(=O)[C@@H](N)[C@@H](C)O)CCNC(=O)[C@H]([C@@H](C)O)NC(=O)[C@H](CCN)NC(=O)[C@H](CCN)NC1=O [PMBN] (H-T[Dab][Dab][Dab][dF]L[Dab][Dab]T; lactam 3-C)
wt-OMVs [1]
  effect on OMV morphology (words): less or no OMV clumping was observed
wt-OMVs [2]; no pre-saturation
  pKd: 6.54

Source: paper PMC11148078, “Potent activity of polymyxin B is associated with long-lived super-stoichiometric accumulation mediated by weak-affinity binding to lipid A” (Nature Communications, 2024)
